The results in this text go back to patent US11672786B2, “Methods of treating diseases associated with repeat instability” (The Hospital for Sick Children, priority 2016, dated 2023).

In this experiment the test system is CASK, ATXN8, and Mfd15 loci in HT1080-(CAG)850 cells. As to the kind of experiment: repeat-tract lengths of non-expanded loci in HT1080-(CAG)850 cells. As to conditions: 30 days incubation with or without NA. The class given is cell-based, human. The text has this: FIG. 5 are results from experiments showing that NA induces CAG contractions in HT1080-(CAG)850 cells, independent of proliferation, dependent upon rCAG transcription. […] Panel B of FIG. 5 are histograms showing repeat length distributions in HT1080-(CAG)850 cells. Frequency distribution of unstable alleles is shown by gray bars. Frequency of stable alleles is shown by black bars. To facilitate comparisons, a dashed line indicates the unchanged CAG size. Allele lengths are grouped in bins spanning 50 repeats. […] More than 50 alleles were sized for each group. P-value was calculated by chi-square test (Table 2). […] P-value was calculated by Student's t-test. […] Repeat length distributions and average repeat size changes are shown. […] Quantitative reverse transcription (RT)-PCR was performed using TaqMan Gene Expression assays. […]
Genomic DNA was extracted from HT1080-(CAG)850 clones and HD primary fibroblasts using the Gentra Puregene Cell Kit (Qiagen, Valencia, Calif.). […] At least 50 alleles were analyzed for each of the three experiments (more than 150 alleles for a total study). […] For the histograms in FIGS. 4D, 4E, 10, 11, 5B, 5D, 5E, 14 and 15B, the Y-axis, “% of repeat population” was calculated by determining the proportion of >50 individual small-pool PCR reactions across the CAG repeat tract, that harbored a certain size of repeat product with a certain length. […]

naphthyridine-azaquinolone: the “length variation at CASK, ATXN8, and Mfd15 loci” value is listed as “Length variation was not observed”.
